# Experiments:
# [1] = tested on: Jurkat cells (ATCC TIB-152); assay: Influence on cell survival rate (alamarBlue); type: cell-based; details: cultured 24 hours with compound
# Method: Jurkat cells (ATCC TIB-152) passaged on 10% fetal calf serum-containing RPMI medium (10F-RPMI, GIBCO) were suspended in the same medium to a cell population of 5 x 10^5 cells/ml, and the suspension was placed in each well of a 96-well plate (COSTAR) in an amount of 100 µl/well, followed by culturing the cells at 37°C under 5% CO2 for 24 hours. Then alamarBlue®(BioSource) was added in an amount of 10 µl/well and the cells were cultured for another 4 hours. Thereafter, the absorbance at 570 nm and 600 nm was measured with a microplate reader (BioRad model 3550). The test compound dissolved in 10F-RPMI was mixed with the Jurkat cells and the cells were cultured for 24 hours to examine its influence.
# superoxide = assay: Radical scavenger action (superoxide from xanthine and xanthine oxidase); type: biochemical; details: luminescence at 380 nm, 10 to 60 seconds after xanthine oxidase addition
# Method: The radical scavenger action of the compounds was measured using the amount of the superoxide as an index, which is produced when xanthine and xanthine oxidase are reacted. First, 1 mM of xanthine (SIGMA) dissolved in Hanks buffer solution (GIBCO), 2 mM dietylenetriamine-N,N,N',N"-pentaacetic acid (DOJIN) and 40 µM 2-methyl-6-phenyl-3,7-dihydroimidazo[1,2-a]pyrazin-3-one (TOKYO KASEI KOGYO) dissolved in distilled water when use were mixed. Further, 0.3 U/ml xanthine oxidase (BMY) dissolved in Hanks buffer when use was added. Luminescence intensity at 380 nm from 10 seconds to 60 seconds after the addition was measured by Lumat (Berthold, LB9501), and the measured amount was defined as the amount of produced superoxide. The test compound was added to the xanthine-containing solution before addition of the xanthine oxidase, and the resulting mixture was preincubated at 25°C for 5 minutes to examine its influence.
# Mouse Asthma Model = assay: Mouse asthma model (OVA/Alum sensitization, OVA inhalation, airway anaphylaxis and BALF eosinophils); type: in vivo, BLAB/c mouse; details: at a dose of not more than 150 mg/kg, topically or systemically
# Method: A mixed solution containing aluminum hydroxide gel (Alum) on which ovalbumin (hereinafter "OVA") was adsorbed (20 ∝g OVA/2mg Alum/200 ∝l physiological saline) was intraperitoneally administered to each BLAB/c mouse (female, 7 weeks old, JAPAN CHARLES RIVER) at a dose of 200 ∝l ([…]) per time on DAY-1 and DAY-14 to sensitize the mouse. Then each mice was made to aspire 2% OVA dissolved in physiological saline on DAY-28, 29 and 30 to induce inflammation. Compound Nos. 143 and 236 used as the test compounds were dissolved in physiological saline and each solution was topically or systemically administered at 30 minutes before induction by OVA, and twice a day after induction.
# On DAY-31, development of airway anaphylaxis was measured using a non-restrictive chamber (BUXCO). Then the bronchus of each mouse was incised and the bronchus and alveoli were washed (BAL) with 0.7 ml of physiological saline. After the washing, the washing fluid (BALF) of the bronchus and alveoli was recovered and centrifuged. The leukocytes contained in the BALF were subjected to site spin to prepare a smear specimen. After staining the specimen by May-Giemsa staining method, the leukocytes were grouped and counted under microscope to determine the number of eosinophils. The experiment was carried out using 6 to 8 mice in each group. The results are shown in terms of mean ± standard error.
Compound,"influences on the survival rate of the cells relative to 3-(4-((2,6-dichlorophenyl)carbonylamino)phenyl)-2-((6-bromo-2-methylphenyl)carbonylamino)propanoic acid [1]","radical scavenger activities relative to 3-(4-((2,6-dichlorophenyl)carbonylamino)phenyl)-2-((6-bromo-2-methylphenyl)carbonylamino)propanoic acid (superoxide) [times]",accumulation of eosinophils to the lung (Mouse Asthma Model; BALF on DAY-31),progress of airway anaphylaxis (Mouse Asthma Model; DAY-31)
"Cc1cccc(Br)c1C(=O)N[C@@H](Cn1ccc(NC(=O)c2c(Cl)cccc2Cl)nc1=O)C(=O)O [Example 240, (2S)-3-(4-((2,6-dichlorophenyl)carbonylamino)-2-oxohydropyrimidinyl)-2-((2-bromo-6-methylphenyl)carbonylamino)propionic acid]",not more than 1/4,2 to 5,–,–
"O=C(Nc1ccn(C[C@H](NC(=O)c2c(Cl)cccc2Cl)C(=O)O)c(=O)n1)c1c(Cl)cccc1Cl [Example 236, (2S)-2-((2,6-dichlorophenyl)carbonylamino)-3-(4-((2,6-dichlorophenyl)carbonylamino)-2-oxohydropyrimidinyl)propionic acid]",not more than 1/4,2 to 5,inhibited,inhibited

# Reference: patent publication EP1209147A1, “CARBOXYLIC ACID DERIVATIVES AND ADHESION MOLECULE INHIBITORS CONTAINING THE SAME AS THE ACTIVE INGREDIENT” (TORAY INDUSTRIES, INC., priority 1999, dated 2001)
